Assay results reported in patent US20260138976A1 (Hoffmann-La Roche Inc., priority 2022, published 2026).

Assays:
[1] = molecular target: T1, DGKα (hDGKalpha(1-735)-N-His) (Homo sapiens, UniProt P23743); test: In vitro DGK inhibition assay, DGKalpha ADP Glo (in house); type: biochemical; conditions: 4 nM DGKα, 25 μM ATP, 125 uM DLG in liposomes, 1 hour reaction
T1 construct: hDGKalpha(1-735)-N-His; His (N); made in house; host or cells: Sf21 insect cells (baculovirus)
Method in brief: (§1)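 ADP-Glo luminescence measured ADP formed over 1 h by Sf21-expressed full-length human enzymes: DGKα at 4 nM with 25 µM ATP, DGKζ at 2 nM with 50 µM ATP, both on 125 µM DLG in PS/PC liposomes. Dose–response used 11 threefold dilutions at 2% final DMSO.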

[2] = molecular target: T2, DGKζ (hDGKzeta(1-928)-N-His) (Homo sapiens, UniProt Q13574); test: In vitro DGK inhibition assay, DGKzeta ADP Glo (in house); type: biochemical; conditions: 2 nM DGKζ, 50 μM ATP, 125 uM DLG in liposomes, 1 hour reaction
T2 construct: hDGKzeta(1-928)-N-His; His (N); made in house; host or cells: Sf21 insect cells (baculovirus)
Method in brief: as §1

primary human T-cells = test: Proliferation assay (5 days, CellTiter-Glo, CD3-stimulated T-cells); type: cell-based; conditions: for Emax proliferation (% activation): CD3 condition, normalised to DMSO (neutral) and 20 μM reference compound A1 = 100%; for EC50: Homo sapiens, T-cell, 120 h, CD3-stimulated primary human T-cells, 5 days, CellTiter-Glo, fitted sigmoidal curve, read-out: Tcell Proliferation CD3 EC50
Method in brief: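 Proliferation read-out: ATP luminescence (CellTiter-Glo 2.0) at day 5 in expanded primary human T-cells on CD3 antibody-coated plates, with PBS-only plates as a counter screen. Compounds in 5–6 pt series (factor 3.333, top 20 or 10 μM final). Values are normalized to DMSO (neutral) and 20 μM reference A1 (100%), from sigmoidal fits.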

T2 sequence (Q13574 whole entry): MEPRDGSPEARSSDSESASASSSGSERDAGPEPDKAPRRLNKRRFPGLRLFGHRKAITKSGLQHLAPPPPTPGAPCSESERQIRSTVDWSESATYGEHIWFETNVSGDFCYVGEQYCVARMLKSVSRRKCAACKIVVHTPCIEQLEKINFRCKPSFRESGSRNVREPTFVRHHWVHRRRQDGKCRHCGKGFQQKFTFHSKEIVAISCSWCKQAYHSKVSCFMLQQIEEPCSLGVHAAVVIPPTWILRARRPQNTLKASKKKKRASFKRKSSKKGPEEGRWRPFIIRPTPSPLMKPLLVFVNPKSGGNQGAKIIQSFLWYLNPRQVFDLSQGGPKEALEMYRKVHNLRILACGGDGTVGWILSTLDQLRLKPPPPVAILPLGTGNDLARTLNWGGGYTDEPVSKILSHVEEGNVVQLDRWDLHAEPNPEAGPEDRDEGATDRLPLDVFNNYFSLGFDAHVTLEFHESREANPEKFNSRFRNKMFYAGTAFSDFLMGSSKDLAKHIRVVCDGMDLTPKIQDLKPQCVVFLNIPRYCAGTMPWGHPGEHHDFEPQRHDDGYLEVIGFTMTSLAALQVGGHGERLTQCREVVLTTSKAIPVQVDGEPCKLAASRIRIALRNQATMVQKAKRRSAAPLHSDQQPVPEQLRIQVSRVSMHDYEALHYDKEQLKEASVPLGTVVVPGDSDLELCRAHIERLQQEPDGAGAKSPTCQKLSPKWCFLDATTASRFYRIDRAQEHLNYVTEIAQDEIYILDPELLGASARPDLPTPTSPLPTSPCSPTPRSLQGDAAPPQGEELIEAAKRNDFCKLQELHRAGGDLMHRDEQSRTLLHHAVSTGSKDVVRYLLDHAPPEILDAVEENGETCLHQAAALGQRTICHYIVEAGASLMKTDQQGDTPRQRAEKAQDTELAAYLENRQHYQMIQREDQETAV
T1 sequence (P23743 whole entry): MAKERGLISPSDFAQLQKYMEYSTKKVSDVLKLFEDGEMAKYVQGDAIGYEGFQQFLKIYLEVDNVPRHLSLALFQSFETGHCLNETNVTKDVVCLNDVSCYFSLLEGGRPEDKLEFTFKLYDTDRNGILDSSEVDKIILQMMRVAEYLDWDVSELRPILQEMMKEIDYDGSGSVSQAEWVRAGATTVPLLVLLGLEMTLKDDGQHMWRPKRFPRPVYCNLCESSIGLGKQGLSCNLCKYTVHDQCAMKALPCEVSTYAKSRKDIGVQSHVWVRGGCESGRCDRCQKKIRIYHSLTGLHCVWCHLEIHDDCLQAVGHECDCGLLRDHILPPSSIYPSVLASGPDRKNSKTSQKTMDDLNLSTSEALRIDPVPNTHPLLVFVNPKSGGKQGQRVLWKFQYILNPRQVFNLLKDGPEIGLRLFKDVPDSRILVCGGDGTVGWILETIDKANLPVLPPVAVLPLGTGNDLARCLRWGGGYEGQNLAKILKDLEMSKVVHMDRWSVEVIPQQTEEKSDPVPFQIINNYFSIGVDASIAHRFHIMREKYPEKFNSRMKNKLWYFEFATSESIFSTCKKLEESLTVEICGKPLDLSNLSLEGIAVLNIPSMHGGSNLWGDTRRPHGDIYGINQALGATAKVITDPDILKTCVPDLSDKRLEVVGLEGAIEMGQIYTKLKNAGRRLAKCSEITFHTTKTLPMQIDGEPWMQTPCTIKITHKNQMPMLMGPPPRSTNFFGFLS

Question: What does the source list for Cc1cc(C)n(-c2ccc(CN3C(=O)[C@@H](N)CS(=O)(=O)c4ccc(-c5nnc(C(C)(C)C)o5)cc43)cc2)n1 [Example 22, (3R)-3-amino-7-(5-tert-butyl-1,3,4-oxadiazol-2-yl)-5-[[4-(3,5-dimethylpyrazol-1-yl)phenyl]methyl]-1,1-dioxo-2,3-dihydro-1λ^6,5-benzothiazepin-4-one]?
Answer: IC50 [1]: 1860 nM; IC50 [2]: 1090 nM; Emax proliferation (% activation) (primary human T-cells): 69 % activation; EC50 (primary human T-cells): 3930 nM

Question: CC(C)(C)c1nnc(-c2ccc3c(c2)N(Cc2ccc(-c4nnc(C(F)(F)F)o4)cc2)C(=O)[C@@H](N)CS3(=O)=O)o1 [Example 24, (3R)-3-amino-7-(5-tert-butyl-1,3,4-oxadiazol-2-yl)-1,1-dioxo-5-[[4-[5-(trifluoromethyl)-1,3,4-oxadiazol-2-yl]phenyl]methyl]-2,3-dihydro-1λ^6,5-benzothiazepin-4-one] was tested. Which IC50 [1] did it give?
Answer: 9860 nM

Question: What about the IC50 [2] of the same compound?
Answer: 1440 nM

Question: And the “Emax proliferation (% activation)” value (primary human T-cells)?
Answer: 142 % activation

Question: What about the EC50 (primary human T-cells) of the same compound?
Answer: 775 nM

Question: How did the IC50 [1] turn out when CC(N)(c1nnc(-c2ccc3c(c2)N(Cc2ccc(-c4noc(C(F)(F)F)n4)cc2)C(=O)[C@@H](N)CS3(=O)=O)o1)C(F)(F)F (stereo partly drawn) [Example 32, (3R)-3-amino-7-[5-(1-amino-2,2,2-trifluoro-1-methyl-ethyl)-1,3,4-oxadiazol-2-yl]-1,1-dioxo-5-[[4-[5-(trifluoromethyl)-1,2,4-oxadiazol-3-yl]phenyl]methyl]-2,3-dihydro-1λ^6,5-benzothiazepin-4-one] was run?
Answer: 39400 nM

Question: What about the IC50 [2] of the same compound?
Answer: 1740 nM

Question: What about the “Emax proliferation (% activation)” value (primary human T-cells) of the same compound?
Answer: 153 % activation

Question: What about the EC50 (primary human T-cells) of the same compound?
Answer: 468 nM

Question: Which IC50 [1] does the source give for CC(C)(C)C(N)c1nnc(-c2ccc3c(c2)N(Cc2ccc(-c4noc(C(F)(F)F)n4)cc2)C(=O)[C@@H](N)CS3(=O)=O)o1 (stereo partly drawn) [Example 34, (3R)-3-amino-7-[5-(1-amino-2,2-dimethyl-propyl)-1,3,4-oxadiazol-2-yl]-1,1-dioxo-5-[[4-[5-(trifluoromethyl)-1,2,4-oxadiazol-3-yl]phenyl]methyl]-2,3-dihydro-1λ^6,5-benzothiazepin-4-one] here?
Answer: 12200 nM

Question: And the IC50 [2]?
Answer: 1670 nM

Question: And the “Emax proliferation (% activation)” value (primary human T-cells)?
Answer: 67 % activation

Question: And the EC50 (primary human T-cells)?
Answer: 1180 nM

Question: With CC(C#N)c1nnc(-c2ccc3c(c2)N(Cc2ccc(-c4noc(C(F)(F)F)n4)cc2)C(=O)[C@@H](N)CS3(=O)=O)o1 (stereo partly drawn) [Example 35, 2-[5-[(3R)-3-amino-1,1,4-trioxo-5-[[4-[5-(trifluoromethyl)-1,2,4-oxadiazol-3-yl]phenyl]methyl]-2,3-dihydro-1λ^6,5-benzothiazepin-7-yl]-1,3,4-oxadiazol-2-yl]propanenitrile] as the compound, how does the IC50 [1] read?
Answer: 10100 nM

Question: What about the IC50 [2] of the same compound?
Answer: 3060 nM

Question: And the “Emax proliferation (% activation)” value (primary human T-cells)?
Answer: 99 % activation

Question: And the EC50 (primary human T-cells)?
Answer: 2490 nM

Question: How did the IC50 [1] turn out when N[C@H]1CS(=O)(=O)c2ccc(-c3nnc(C4(C5CC5)CCCO4)o3)cc2N(Cc2ccc(-c3noc(C(F)(F)F)n3)cc2)C1=O (stereo partly drawn) [Example 36, (3R)-3-amino-7-[5-(2-cyclopropyl-tetrahydrofuran-2-yl)-1,3,4-oxadiazol-2-yl]-1,1-dioxo-5-[[4-[5-(trifluoromethyl)-1,2,4-oxadiazol-3-yl]phenyl]methyl]-2,3-dihydro-1λ^6,5-benzothiazepin-4-one] was run?
Answer: 2600 nM

Question: And the IC50 [2]?
Answer: 956 nM

Question: What about the “Emax proliferation (% activation)” value (primary human T-cells) of the same compound?
Answer: 108 % activation

Question: What about the EC50 (primary human T-cells) of the same compound?
Answer: 91.7 nM

Question: How did the IC50 [1] turn out when COC(F)(c1nnc(-c2ccc3c(c2)N(Cc2ccc(-c4noc(C(F)(F)F)n4)cc2)C(=O)[C@@H](N)CS3(=O)=O)o1)C(F)(F)F (stereo partly drawn) [Example 37, (3R)-3-amino-1,1-dioxo-7-[5-(1,2,2,2-tetrafluoro-1-methoxy-ethyl)-1,3,4-oxadiazol-2-yl]-5-[[4-[5-(trifluoromethyl)-1,2,4-oxadiazol-3-yl]phenyl]methyl]-2,3-dihydro-1λ^6,5-benzothiazepin-4-one] was run?
Answer: 2000 nM

Question: And the IC50 [2]?
Answer: 8830 nM

Question: And the “Emax proliferation (% activation)” value (primary human T-cells)?
Answer: 173 % activation

Question: What about the EC50 (primary human T-cells) of the same compound?
Answer: 304 nM

Question: With CC(C)(C#N)c1nnc(-c2ccc3c(c2)N(Cc2ccc(-c4noc(C(F)(F)F)n4)cc2)C(=O)[C@@H](N)CS3(=O)=O)o1 [Example 38, 2-[5-[(3R)-3-amino-1,1,4-trioxo-5-[[4-[5-(trifluoromethyl)-1,2,4-oxadiazol-3-yl]phenyl]methyl]-2,3-dihydro-1λ^6,5-benzothiazepin-7-yl]-1,3,4-oxadiazol-2-yl]-2-methyl-propanenitrile] as the compound, how does the IC50 [1] read?
Answer: 9770 nM

Question: What about the IC50 [2] of the same compound?
Answer: 1140 nM

Question: What about the “Emax proliferation (% activation)” value (primary human T-cells) of the same compound?
Answer: 97 % activation

Question: What about the EC50 (primary human T-cells) of the same compound?
Answer: 640 nM

Question: For N[C@H]1CS(=O)(=O)c2ccc(-c3nnc(C4(N)CCCCC4)o3)cc2N(Cc2ccc(-c3noc(C(F)(F)F)n3)cc2)C1=O [Example 39, (3R)-3-amino-7-[5-(1-aminocyclohexyl)-1,3,4-oxadiazol-2-yl]-1,1-dioxo-5-[[4-[5-(trifluoromethyl)-1,2,4-oxadiazol-3-yl]phenyl]methyl]-2,3-dihydro-1λ^6,5-benzothiazepin-4-one], which IC50 [1] is on record?
Answer: 19000 nM

Question: And the IC50 [2]?
Answer: 1780 nM

Question: And the “Emax proliferation (% activation)” value (primary human T-cells)?
Answer: 91 % activation

Question: And the EC50 (primary human T-cells)?
Answer: 181 nM

Question: Which results are given for N[C@H]1CS(=O)(=O)c2ccc(-c3nnc(C4(N)CCCCC4)o3)cc2N(Cc2ccc(-c3ccc(C(F)(F)F)cn3)cc2)C1=O [Example 41, (3R)-3-amino-7-[5-(1-aminocyclohexyl)-1,3,4-oxadiazol-2-yl]-1,1-dioxo-5-[[4-[5-(trifluoromethyl)-2-pyridyl]phenyl]methyl]-2,3-dihydro-1λ^6,5-benzothiazepin-4-one]?
Answer: IC50 [1]: 30600 nM; IC50 [2]: 3240 nM; Emax proliferation (% activation) (primary human T-cells): 85 % activation; EC50 (primary human T-cells): 902 nM

Question: What does the source list for N[C@H]1CS(=O)(=O)c2ccc(-c3nnc(C4(N)CCCCC4)o3)cc2N(Cc2ccc(-c3ccc(C(F)(F)F)cc3)cc2)C1=O [Example 42, (3R)-3-amino-7-[5-(1-aminocyclohexyl)-1,3,4-oxadiazol-2-yl]-1,1-dioxo-5-[[4-[4-(trifluoromethyl)phenyl]phenyl]methyl]-2,3-dihydro-1λ^6,5-benzothiazepin-4-one]?
Answer: IC50 [1]: 30400 nM; IC50 [2]: 8120 nM; Emax proliferation (% activation) (primary human T-cells): 66 % activation; EC50 (primary human T-cells): 123 nM

Question: How did the IC50 [1] turn out when COc1ccc(-c2ccc(CN3C(=O)[C@@H](N)CS(=O)(=O)c4ccc(-c5nnc(C6(N)CCCCC6)o5)cc43)cc2)cc1 [Example 43, (3R)-3-amino-7-[5-(1-aminocyclohexyl)-1,3,4-oxadiazol-2-yl]-5-[[4-(4-methoxyphenyl)phenyl]methyl]-1,1-dioxo-2,3-dihydro-1λ^6,5-benzothiazepin-4-one] was run?
Answer: 17100 nM

Question: And the IC50 [2]?
Answer: 1090 nM

Question: And the “Emax proliferation (% activation)” value (primary human T-cells)?
Answer: 64 % activation

Question: And the EC50 (primary human T-cells)?
Answer: 284 nM

Question: What does the source list for COc1ccc(-c2ccc(CN3C(=O)[C@@H](N)CS(=O)(=O)c4ccc(-c5nnc(C6(F)CCCN(C)C6)o5)cc43)cc2)cc1 (stereo partly drawn) [Example 50, (3R)-3-amino-7-[5-(3-fluoro-1-methyl-3-piperidyl)-1,3,4-oxadiazol-2-yl]-5-[[4-(4-methoxyphenyl)phenyl]methyl]-1,1-dioxo-2,3-dihydro-1λ^6,5-benzothiazepin-4-one]?
Answer: IC50 [1]: 3380 nM; IC50 [2]: 851 nM; Emax proliferation (% activation) (primary human T-cells): 219 % activation; EC50 (primary human T-cells): 1040 nM

Question: With CN1CCCC(F)(c2nnc(-c3ccc4c(c3)N(Cc3ccc(-c5ccc(C(F)(F)F)cn5)cc3)C(=O)[C@@H](N)CS4(=O)=O)o2)C1 (stereo partly drawn) [Example 51, (3R)-3-amino-7-[5-(3-fluoro-1-methyl-3-piperidyl)-1,3,4-oxadiazol-2-yl]-1,1-dioxo-5-[[4-[5-(trifluoromethyl)-2-pyridyl]phenyl]methyl]-2,3-dihydro-1λ^6,5-benzothiazepin-4-one] as the compound, how does the IC50 [1] read?
Answer: 6260 nM

Question: And the IC50 [2]?
Answer: 1800 nM

Question: What about the “Emax proliferation (% activation)” value (primary human T-cells) of the same compound?
Answer: 112 % activation

Question: What about the EC50 (primary human T-cells) of the same compound?
Answer: 882 nM

Question: Which results are given for N[C@H]1CS(=O)(=O)c2ccc(-c3nnc(C4(CO)CCCO4)o3)cc2N(Cc2ccc(-c3noc(C(F)(F)F)n3)cc2)C1=O (stereo partly drawn) [Example 54, (3R)-3-amino-7-[5-[2-(hydroxymethyl)tetrahydrofuran-2-yl]-1,3,4-oxadiazol-2-yl]-1,1-dioxo-5-[[4-[5-(trifluoromethyl)-1,2,4-oxadiazol-3-yl]phenyl]methyl]-2,3-dihydro-1λ^6,5-benzothiazepin-4-one]?
Answer: IC50 [1]: 12600 nM; IC50 [2]: 1380 nM; Emax proliferation (% activation) (primary human T-cells): 94 % activation; EC50 (primary human T-cells): 892 nM

Question: What does the source list for COC(=O)N1CC(c2nnc(-c3ccc4c(c3)N(Cc3ccc(-c5noc(C(C)(C)C)n5)cc3)C(=O)[C@@H](N)CS4(=O)=O)o2)CC(F)(F)C1 (stereo partly drawn) [Example 56, methyl 3,3-difluoro-5-[5-[(3R)-3-amino-5-[[4-(5-tert-butyl-1,2,4-oxadiazol-3-yl)phenyl]methyl]-1,1,4-trioxo-2,3-dihydro-1λ^6,5-benzothiazepin-7-yl]-1,3,4-oxadiazol-2-yl]piperidine-1-carboxylate]?
Answer: IC50 [1]: 1990 nM; IC50 [2]: 228 nM; Emax proliferation (% activation) (primary human T-cells): 425 % activation; EC50 (primary human T-cells): 2210 nM
